2 molecules from patent US20150297652A1, “COMPOSITIONS AND METHODS FOR THEIR DERMATOLOGICAL USE” (VITA NATURALE, LLC, priority 2012, published 2015) can be followed below.

For one data set, the system named is chronic scalp dermatitis. Nature of the data set: Topical treatment of chronic scalp dermatitis (Subject 3). The data set is classed as in vivo, human. The note with it: past treatment of the scalp with clobetasol 0.05% solution. The method, then: A topical composition of the present invention, referred to herein as Composition 1, comprising as active ingredients Albizzia lebbeck (1%), schisandra chinensis (0.1%), and ophiopogon japonicus (2%), as well as petrolatum, water, glycerin, sodium hyaluronate, dimethicone, glyceryl stearate, acrylates, disodium EDTA, capric triglyceride, propanediol, phenoxyethanol, and triethanolamine, was prepared and administered to subjects as follows:
Subject 3 suffered from chronic scalp dermatitis characterized by persistent severe itching and scaling of the scalp. […] Untreated areas were persistently itchy and scaly.

The test system of a further data set is chronic eyelid eczema. Nature of the data set: Topical treatment of chronic eyelid eczema (Subject 1). The data set is classed as in vivo, human. The note with it: previously treated with emollients and hydrocortisone. The method, then:
A topical composition of the present invention, referred to herein as Composition 1, comprising as active ingredients Albizzia lebbeck (1%), schisandra chinensis (0.1%), and ophiopogon japonicus (2%), as well as petrolatum, water, glycerin, sodium hyaluronate, dimethicone, glyceryl stearate, acrylates, disodium EDTA, capric triglyceride, propanediol, phenoxyethanol, and triethanolamine, was prepared and administered to subjects as follows: Subject 1 suffered from chronic eyelid eczema characterized by persistent severe itching and scaling of the eyelids.

SMILES strings stand for the structures.

As for `C[C@H]1C[C@H]2[C@@H]3CCC4=CC(=O)C=C[C@]4(C)[C@@]3(F)[C@@H](O)C[C@]2(C)[C@@]1(O)C(=O)CCl` [clobetasol], in the data set with chronic scalp dermatitis, the adverse side effects result was “adverse side effects including acne and skin atrophy”.
For the molecule `C[C@]12CCC(=O)C=C1CC[C@@H]1[C@@H]2[C@@H](O)C[C@@]2(C)[C@H]1CC[C@]2(O)C(=O)CO` [hydrocortisone], in the data set with chronic eyelid eczema, the “improvement with previous treatment” value is reported as “minimal improvement”.
